In US20240252488A1 (KOREA RESEARCH INSTITUTE OF CHEMICAL TECHNOLOGY, priority 2020, published 2024):

Tests used:
FADD−/− Jurkat cells = experiment: Necroptosis inhibition assay, TNF-α-induced necroptosis (CellTiter-Glo 2.0); type: cell-based, human; details: TNF-α 15 ng/mL, FADD−/− Jurkat cells; for Necroptosis inhibition assay (Rescue %) 1 μM: compound 1 μM; for Necroptosis inhibition assay (Rescue %) 10 μM: compound 10 μM
Summary of the method: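 FADD−/− Jurkat cells preincubated 30 min at room temperature with compound at 0.1, 1 and 10 μM final, then stimulated with TNF-α (15 ng/mL final) for 20–24 h at 37 °C, 5% CO2. Viability read as ATP luminescence; cytotoxicity and necroptosis inhibition rate calculated from luminescence values.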

MLKL [1] = target: T1, MLKL (Homo sapiens, UniProt Q8NB16); experiment: MLKL degradation assay in HepG2 cell line (western blot); type: cell-based; set-up: endogenous in cells; host or cells: HepG2 or HaCaT; details: cell line not given; for Degradation assay (Degradation %) 1 μM: compound 1 μM; for Degradation assay (Degradation %) 10 μM: compound 10 μM
T1 sequence (Q8NB16 1-471): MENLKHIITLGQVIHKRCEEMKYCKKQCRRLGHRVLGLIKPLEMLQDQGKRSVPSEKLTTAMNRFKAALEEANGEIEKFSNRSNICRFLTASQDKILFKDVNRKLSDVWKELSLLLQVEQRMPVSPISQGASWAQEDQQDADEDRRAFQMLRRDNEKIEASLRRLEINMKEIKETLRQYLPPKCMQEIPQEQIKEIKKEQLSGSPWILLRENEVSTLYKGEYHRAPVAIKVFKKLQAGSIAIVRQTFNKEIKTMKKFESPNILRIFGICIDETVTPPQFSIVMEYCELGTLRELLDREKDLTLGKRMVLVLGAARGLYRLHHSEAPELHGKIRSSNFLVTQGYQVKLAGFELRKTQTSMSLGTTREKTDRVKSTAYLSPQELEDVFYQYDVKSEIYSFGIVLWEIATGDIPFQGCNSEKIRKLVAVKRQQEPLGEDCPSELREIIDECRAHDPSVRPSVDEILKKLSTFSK
Summary of the method: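 HepG2 cells were treated 20-24 h at 37 °C with compound at 1 or 10 μM final. RIPA lysates were normalized by BCA, and 10-15 μg protein per lane was resolved by SDS-PAGE. MLKL was detected by western blot with chemiluminescence.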

MLKL [2] = target: T1, MLKL; experiment: Measurement of binding affinity with MLKL receptor (competitive binding assay, Kd); set-up: made in house; host or cells: HEK 293 cell line (T7 phage in E. coli BL21-derived host is also described)
Summary of the method: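 HEK 293-expressed, DNA-tagged MLKL; ligand beads blocked with biotin and SeaBlock/1% BSA/0.05% Tween 20/1 mM DTT buffer. Cpd from 111× DMSO stock, 0.9% DMSO final. Eluted kinase by qPCR → Kd.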

Structure (SMILES)	Degradation assay (Degradation %) 1 μM (MLKL [1]) [%]	Degradation assay (Degradation %) 10 μM (MLKL [1]) [%]	Kd (MLKL [2]) [nM]	Necroptosis inhibition assay (Rescue %) 1 μM (FADD−/− Jurkat cells) [%]	Necroptosis inhibition assay (Rescue %) 10 μM (FADD−/− Jurkat cells) [%]
COc1ccc(C(=O)N2CCC(OCCN3CCC(CN4CCC(n5cc(-c6cnc(N)c(C(=O)O[C@@H](C(=O)Nc7ccc(F)cc7)c7ccccc7)n6)cn5)CC4)CC3)CC2)cc1N1CCC(=O)NC1=O [TDH-506, (R)-2-((4-fluorophenyl)amino)-2-oxo-1-phenylethyl 3-amino-6-(1-(1-((1-(2-((1-(3-(2,4-dioxotetrahydropyrimidin-1(2H)-yl)-4-methoxybenzoyl)piperidin-4-yl)oxy)ethyl)piperidin-4-yl)methyl)piperidin-4-yl)-1H-pyrazol-4-yl)pyrazine-2-carboxylate]	88.53	88.65	0.6	75.45	48.09
Nc1ncc(-c2cnn(C3CCN(CC4CCN(CCC5CCN(C(=O)Cc6cccc(NC7=CC(=O)N(C8CCC(=O)NC8=O)C7=O)c6)CC5)CC4)CC3)c2)nc1C(=O)O[C@@H](C(=O)Nc1ccc(F)cc1)c1ccccc1 (stereo partly drawn) [TDH-507, (R)-2-((4-fluorophenyl)amino)-2-oxo-1-phenylethyl 3-amino-6-(1-(1-((1-(2-(1-(2-(3-((1-(2,6-dioxopiperidin-3-yl)-2,5-dioxo-2,5-dihydro-1H-pyrrol-3-yl)amino)phenyl)acetyl)piperidin-4-yl)ethyl)piperidin-4-yl)methyl)piperidin-4-yl)-1H-pyrazol-4-yl)pyrazine-2-carboxylate]	82.75	86.37	1.1	26.03	14.19
COc1ccc(C(=O)N2CCC(C(=O)N3CCC4(CC3)CC(N3CCC(CN5CCC(n6cc(-c7cnc(N)c(C(=O)O[C@@H](C(=O)Nc8ccc(F)cc8)c8ccccc8)n7)cn6)CC5)CC3)C4)CC2)cc1N1CCC(=O)NC1=O [TDH-508, (R)-2-((4-fluorophenyl)amino)-2-oxo-1-phenylethyl 3-amino-6-(1-(1-((1-(7-(1-(3-(2,4-dioxotetrahydropyrimidin-1(2H)-yl)-4-methoxybenzoyl)piperidine-4-carbonyl)-7-azaspiro[3.5]nonan-2-yl)piperidin-4-yl)methyl)piperidin-4-yl)-1H-pyrazol-4-yl)pyrazine-2-carboxylate]	87.16	90.95	0.4	48.15	39.79
Nc1ncc(-c2cnn(C3CCN(CCC4CCN(C5CC6(CCN(C(=O)Cc7cccc(NC8=CC(=O)N(C9CCC(=O)NC9=O)C8=O)c7)CC6)C5)CC4)CC3)c2)nc1C(=O)O[C@@H](C(=O)Nc1ccc(F)cc1)c1ccccc1 (stereo partly drawn) [TDH-509, (R)-2-((4-fluorophenyl)amino)-2-oxo-1-phenylethyl 3-amino-6-(1-(1-(2-(1-(7-(2-(3-((1-(2,6-dioxopiperidin-3-yl)-2,5-dioxo-2,5-dihydro-1H-pyrrol-3-yl)amino)phenyl)acetyl)-7-azaspiro[3.5]nonan-2-yl)piperidin-4-yl)ethyl)piperidin-4-yl)-1H-pyrazol-4-yl)pyrazine-2-carboxylate]	76.18	73.70	0.78	19.06	5.55
Nc1ncc(-c2cnn(C3CCN(CCC4CCN(CC5CCN(C(=O)Cc6cccc(NC7=CC(=O)N(C8CCC(=O)NC8=O)C7=O)c6)CC5)CC4)CC3)c2)nc1C(=O)O[C@@H](C(=O)Nc1ccc(F)cc1)c1ccccc1 (stereo partly drawn) [TDH-510, (R)-2-((4-fluorophenyl)amino)-2-oxo-1-phenylethyl 3-amino-6-(1-(1-(2-(1-((1-(2-(3-((1-(2,6-dioxopiperidin-3-yl)-2,5-dioxo-2,5-dihydro-1H-pyrrol-3-yl)amino)phenyl)acetyl)piperidin-4-yl)methyl)piperidin-4-yl)ethyl)piperidin-4-yl)-1H-pyrazol-4-yl)pyrazine-2-carboxylate]	79.77	84.86	0.47	28.63	−91.81
COc1ccc(C(=O)N2CCC(C(=O)N3CCC(CN4CCC(CCN5CCC(n6cc(-c7cnc(N)c(C(=O)O[C@@H](C(=O)Nc8ccc(F)cc8)c8ccccc8)n7)cn6)CC5)CC4)CC3)CC2)cc1N1CCC(=O)NC1=O [TDH-511, (R)-2-((4-fluorophenyl)amino)-2-oxo-1-phenylethyl 3-amino-6-(1-(1-(2-(1-((1-(1-(3-(2,4-dioxotetrahydropyrimidin-1(2H)-yl)-4-methoxybenzoyl)piperidine-4-carbonyl)piperidin-4-yl)methyl)piperidin-4-yl)ethyl)piperidin-4-yl)-1H-pyrazol-4-yl)pyrazine-2-carboxylate]	81.08	91.73	0.24	32.32	46.16

More lines, main results first:

Degradation assay (Degradation %) 1 μM (MLKL [1]) [%]	Degradation assay (Degradation %) 10 μM (MLKL [1]) [%]	Kd (MLKL [2]) [nM]	Structure (SMILES)	Necroptosis inhibition assay (Rescue %) 1 μM (FADD−/− Jurkat cells) [%]	Necroptosis inhibition assay (Rescue %) 10 μM (FADD−/− Jurkat cells) [%]
51.41	80.48	0.74	COc1ccc(C(=O)N2CCC(C(=O)N3CCC(OCCN4CCC(CN5CCC(n6cc(-c7cnc(N)c(C(=O)O[C@@H](C(=O)Nc8ccc(F)cc8)c8ccccc8)n7)cn6)CC5)CC4)CC3)CC2)cc1N1CCC(=O)NC1=O [TDH-512, (R)-2-((4-fluorophenyl)amino)-2-oxo-1-phenylethyl 3-amino-6-(1-(1-((1-(2-((1-(1-(3-(2,4-dioxotetrahydropyrimidin-1(2H)-yl)-4-methoxybenzoyl)piperidine-4-carbonyl)piperidin-4-yl)oxy)ethyl)piperidin-4-yl)methyl)piperidin-4-yl)-1H-pyrazol-4-yl)pyrazine-2-carboxylate]	24.43	52.33
46.49	75.71	3.9	Nc1ncc(-c2cnn(C3CCN(CC4CCN(CCC5CCN(c6cc7c(cc6F)C(=O)N(C6CCC(=O)NC6=O)C7=O)CC5)CC4)CC3)c2)nc1C(=O)O[C@@H](C(=O)Nc1ccc(F)cc1)c1ccccc1 (stereo partly drawn) [TDH-513, (R)-2-((4-fluorophenyl)amino)-2-oxo-1-phenylethyl 3-amino-6-(1-(1-((1-(2-(1-(2-(2,6-dioxopiperidin-3-yl)-6-fluoro-1,3-dioxoisoindolin-5-yl)piperidin-4-yl)ethyl)piperidin-4-yl)methyl)piperidin-4-yl)-1H-pyrazol-4-yl)pyrazine-2-carboxylate]	14.47	−61.68
55.53	84.44	0.9	Nc1ncc(-c2cnn(C3CCN(CCC4CCN(CC5CCN(c6cc7c(cc6F)C(=O)N(C6CCC(=O)NC6=O)C7=O)CC5)CC4)CC3)c2)nc1C(=O)O[C@@H](C(=O)Nc1ccc(F)cc1)c1ccccc1 (stereo partly drawn) [TDH-514, (R)-2-((4-fluorophenyl)amino)-2-oxo-1-phenylethyl 3-amino-6-(1-(1-(2-(1-((1-(2-(2,6-dioxopiperidin-3-yl)-6-fluoro-1,3-dioxoisoindolin-5-yl)piperidin-4-yl)methyl)piperidin-4-yl)ethyl)piperidin-4-yl)-1H-pyrazol-4-yl)pyrazine-2-carboxylate]	24.14	−67.06
